# Patent US20080045605A1, “Image Quality in the Eye” (priority 2004, published 2008)
# System: human eye
# Assay: higher-order wavefront aberrations (rms) measured with a wavefront analyzer in subjects treated for 6 months
# Format: in vivo
# Settings: human subjects treated for 6 months; 20 mg/day zeaxanthin (Z), 20 mg/day lutein (L), or 10 mg lutein+10 mg zeaxanthin per day (C, P-C); versus placebo; FIG. 1
# Excerpt: The wavefront aberration function is a way of quantifying the imperfections of the optics of the eye that cause degradation of retinal image quality. The “ideal” wavefront is generated when a “point” on the retina is imaged through the optics of the eye as a plane and flat surface just outside the eye. This means that all the rays emerging from the eye form a parallel bundle and are perpendicular to this plane. The “real” wavefront surface is not a perfect two-dimensional plane and reflects the aberrations present in the optical system. It is usually represented mathematically by a series of terms known as Zernike polynomials. A knowledge of the coefficients of the Zernike polynomials provides a complete description of the wavefront surface. In order to obtain one single number that describes the quality of the imaging system (in this case the human eye) the root mean square (rms) deviation is calculated by computing the root of the mean of the squares of the actual deviations from the ideal plane. The rms value is equivalent to a standard deviation, but the two functions compared are 2D surfaces (i.e., the ideal wavefront and the actual wavefront). The wavefront aberrations are measured with a wavefront analyzer (see, e.g., J. Refract. Surg. 2001; 17(5), S608-S612). […]
row,SMILES,higher-order wavefront aberrations in the human eye
1,CC1=C[C@H](O)CC(C)(C)[C@H]1/C=C/C(C)=C/C=C/C(C)=C/C=C/C=C(C)/C=C/C=C(C)/C=C/C1=C(C)C[C@@H](O)CC1(C)C [lutein],reduction of higher-order wavefront aberrations
2,CC1=C(/C=C/C(C)=C/C=C/C(C)=C/C=C/C=C(C)/C=C/C=C(C)/C=C/C2=C(C)C[C@@H](O)CC2(C)C)C(C)(C)C[C@H](O)C1 [zeaxanthin],reduction of higher-order wavefront aberrations
